Results as given in patent US12226424B2, “Target protein degradation compounds, their anti-tumor use, their intermediates and use of intermediates” (ShanghaiTech University, priority 2018, dated 2025).

What was measured:
[1] = test system: MDA-MB-436 cells (PARP-positive); test: Half inhibitory concentration (IC50) on PARP-positive tumor cells, CCK-8, MDA-MB-436; assay type: cell-based; details: Homo sapiens, 72 hours, read-out: IC50 (μM)/MDA-MB-436 cell line
Description: PARP-positive cells MDA-MB-436 cells (human breast cancer cells) were purchased from the American Type Culture Collection (ATCC).
The cells used in this present disclosure were cultured in a 37° C. incubator containing 5% CO2. The complete cell culture medium was DMEM medium with 10% fetal bovine serum, and the final concentrations of penicillin and streptomycin were 100 U/mL, respectively. All cells were tested negative for mycoplasma with mycoplasma detection kit before the experiment.
Determination of Half Inhibitory Concentration (IC50) of PROTAD Compounds on Tumor Cells
MDA-MB-436 cells were seeded in 100 μL DMEM complete medium at a density of 3500 cells/well. 100 μL of the inoculated cells were treated with 0.5 μL diluted PROTAD compounds of the present disclosure to be tested at 10 successively decreasing concentrations (starting at the highest concentration of 50 μM; 3-fold serial dilutions). After the cells were treated with the tested drugs for 72 hours, cell viability was determined according to the CCK-8 reagent operating instructions. The negative control was DMSO, and the positive control was a commercial inhibitor. After CCK-8 treatment for 2 h, the value of O.D.450 was measured using a microplate reader.

U937 cells = test: Proliferation inhibition (IC50) on non-BCR-ABL-positive U937 cells; details: Homo sapiens, U-937, read-out: IC50 (nM)/U937 cell line
BCR-ABL = BCR-ABL (Homo sapiens, UniProt P00519); test: Western-blot half-degradation concentration (DC50) / degradation of BCR-ABL in K562 cells; details: read-out: DC50 (nM)/K562 cell line, BCR-ABL protein degradation, 24 hours, Western-blot
HEK293 cells = test: Proliferation inhibition (IC50) on non-BCR-ABL-positive HEK293 cells; details: Homo sapiens, HEK293, read-out: IC50 (nM)/HEK293 cell line
[2] = test system: K562 cells (BCR-ABL positive); test: Half inhibitory concentration (IC50) on tumor cells, CCK-8, K562; details: Homo sapiens, K562, 48 h, read-out: IC50 (nM)/K562 cell line
Description: K562 cells were seeded in 100 μL of RPMI1640 complete medium at a density of 20,000 cells/well. 100 μL of the inoculated cells were treated with 100 μL diluted PROTAD compound of the present disclosure to be tested at 9 successively decreasing concentrations (starting at the highest concentration of 10 μM; 3-fold serial dilutions). After the cells were treated with the tested drugs for 48 hours, the cell viability determination was performed in accordance with CCK-8 reagent operating instructions. The negative control was DMSO, and positive control was a commercial inhibitor. After CCK-8 treatment for 2 h, the value of O.D.450 was measured using a microplate reader.

Sequence of BCR-ABL (P00519 with tags, fused parts or gaps): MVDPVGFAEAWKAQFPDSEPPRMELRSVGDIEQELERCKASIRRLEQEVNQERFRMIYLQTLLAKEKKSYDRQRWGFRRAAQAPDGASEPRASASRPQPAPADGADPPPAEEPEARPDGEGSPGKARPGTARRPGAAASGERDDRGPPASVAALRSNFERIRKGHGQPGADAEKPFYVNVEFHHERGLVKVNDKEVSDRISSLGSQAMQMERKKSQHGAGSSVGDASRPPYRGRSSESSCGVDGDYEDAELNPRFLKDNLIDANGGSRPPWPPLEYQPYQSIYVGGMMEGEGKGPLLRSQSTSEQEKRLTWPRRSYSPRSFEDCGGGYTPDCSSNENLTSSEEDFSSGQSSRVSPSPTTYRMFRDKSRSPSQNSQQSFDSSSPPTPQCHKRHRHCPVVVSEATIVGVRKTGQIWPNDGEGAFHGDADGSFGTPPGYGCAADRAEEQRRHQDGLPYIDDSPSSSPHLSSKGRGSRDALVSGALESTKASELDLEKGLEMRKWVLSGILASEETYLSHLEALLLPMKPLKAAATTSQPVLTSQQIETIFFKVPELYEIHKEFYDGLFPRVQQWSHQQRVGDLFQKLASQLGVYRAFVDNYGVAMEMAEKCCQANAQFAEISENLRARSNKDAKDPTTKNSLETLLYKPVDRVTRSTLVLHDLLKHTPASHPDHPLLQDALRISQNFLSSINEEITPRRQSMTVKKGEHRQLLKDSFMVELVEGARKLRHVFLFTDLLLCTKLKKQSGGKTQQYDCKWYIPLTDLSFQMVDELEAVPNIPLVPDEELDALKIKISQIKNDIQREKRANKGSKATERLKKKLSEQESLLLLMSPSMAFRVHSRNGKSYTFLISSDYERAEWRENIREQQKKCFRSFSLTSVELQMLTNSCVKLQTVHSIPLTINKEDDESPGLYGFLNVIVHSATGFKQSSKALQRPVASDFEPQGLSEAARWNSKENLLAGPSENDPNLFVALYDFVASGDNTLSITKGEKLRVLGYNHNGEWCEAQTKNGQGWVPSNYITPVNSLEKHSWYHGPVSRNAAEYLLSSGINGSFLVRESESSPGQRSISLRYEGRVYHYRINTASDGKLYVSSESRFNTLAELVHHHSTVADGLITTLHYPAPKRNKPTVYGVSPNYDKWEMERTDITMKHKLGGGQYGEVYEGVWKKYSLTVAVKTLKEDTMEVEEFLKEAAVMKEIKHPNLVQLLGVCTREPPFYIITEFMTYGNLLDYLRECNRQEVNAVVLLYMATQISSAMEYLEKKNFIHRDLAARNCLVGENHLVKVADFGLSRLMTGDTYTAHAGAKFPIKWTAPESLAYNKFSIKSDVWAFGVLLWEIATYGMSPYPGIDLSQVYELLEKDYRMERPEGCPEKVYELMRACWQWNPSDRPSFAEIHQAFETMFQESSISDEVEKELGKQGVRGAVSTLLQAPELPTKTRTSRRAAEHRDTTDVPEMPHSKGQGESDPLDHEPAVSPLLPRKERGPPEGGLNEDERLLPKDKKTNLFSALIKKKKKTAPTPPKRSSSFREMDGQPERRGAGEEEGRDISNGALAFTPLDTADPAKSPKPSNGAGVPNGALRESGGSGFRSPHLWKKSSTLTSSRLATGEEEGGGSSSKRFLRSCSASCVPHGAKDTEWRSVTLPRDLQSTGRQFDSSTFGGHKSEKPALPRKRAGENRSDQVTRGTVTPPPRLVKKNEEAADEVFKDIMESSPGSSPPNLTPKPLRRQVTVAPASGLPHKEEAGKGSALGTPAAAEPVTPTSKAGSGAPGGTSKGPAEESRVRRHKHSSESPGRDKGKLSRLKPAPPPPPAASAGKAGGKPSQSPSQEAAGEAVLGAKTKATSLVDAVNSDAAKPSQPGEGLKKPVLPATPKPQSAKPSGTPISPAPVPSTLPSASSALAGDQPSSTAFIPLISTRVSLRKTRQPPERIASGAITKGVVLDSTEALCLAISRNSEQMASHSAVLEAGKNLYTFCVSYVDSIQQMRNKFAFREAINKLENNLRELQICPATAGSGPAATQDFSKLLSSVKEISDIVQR

Compound | IC50 [1] [µM] | IC50 (U937 cells) [nM] | DC50 (BCR-ABL) [nM] | IC50 [2] [nM] | IC50 (HEK293 cells) [nM]
NC(=O)c1cccc2cn(-c3ccc([C@@H]4CCCNC4)cc3)nc12 [Niraparib, reference compound] | 1 |  |  |  | 
Cc1nc(Nc2ncc(C(=O)Nc3c(C)cccc3Cl)s2)cc(N2CCN(C(=O)CS(=O)(=O)c3cccc4c3C(=O)N(C3CCC(=O)NC3=O)C4=O)CC2)n1 (centres unmarked) [SIAIS151108, N-(2-chloro-6-methylphenyl)-2-((6-(4-(2-((2-(2,6-dioxopiperidin-3-yl)-1,3-dioxoisoindolin-4-yl)sulfonyl)acetyl)piperazin-1-yl)-2-methylpyrimidin-4-yl)amino)thiazole-5-carboxamide] |  | > 10000 | 245 | 206 | > 10000
Cc1nc(Nc2ncc(C(=O)Nc3c(C)cccc3Cl)s2)cc(N2CCN(C(=O)C[S+]([O-])c3cccc4c3C(=O)N(C3CCC(=O)NC3=O)C4=O)CC2)n1 (centres unmarked) [SIAIS151109, N-(2-chloro-6-methylphenyl)-2-((6-(4-(2-((2-(2,6-dioxopiperidin-3-yl)-1,3-dioxoisoindolin-4-yl)sulfinyl)acetyl)piperazin-1-yl)-2-methylpyrimidin-4-yl)amino)thiazole-5-carboxamide] |  | > 10000 | 483 | 148 | > 10000
Cc1nc(Nc2ncc(C(=O)Nc3c(C)cccc3Cl)s2)cc(N2CCN(C(=O)CSc3cccc4c3C(=O)N(C3CCC(=O)NC3=O)C4=O)CC2)n1 (centres unmarked) [SIAIS151110, N-(2-chloro-6-methylphenyl)-2-((6-(4-(2-((2-(2,6-dioxopiperidin-3-yl)-1,3-dioxoisoindolin-4-yl)thio)acetyl)piperazin-1-yl)-2-methylpyrimidin-4-yl)amino)thiazole-5-carboxamide] |  | > 10000 | < 1 | 3.2 | > 10000
Cc1nc(Nc2ncc(C(=O)Nc3c(C)cccc3Cl)s2)cc(N2CCN(C(=O)CSc3cccc4c3CN(C3CCC(=O)NC3=O)C4=O)CC2)n1 (centres unmarked) [SIAIS171105, N-(2-chloro-6-methylphenyl)-2-((6-(4-(2-((2-(2,6-dioxopiperidin-3-yl)-1-oxoisoindolin-4-yl)thio)acetyl)piperazin-1-yl)-2-methylpyrimidin-4-yl)amino)thiazole-5-carboxamide] |  | > 10000 | 56.7 | 5.71 | > 10000
Cc1nc(Nc2ncc(C(=O)Nc3c(C)cccc3Cl)s2)cc(N2CCN(C(=O)CCCCSc3cccc4c3CN(C3CCC(=O)NC3=O)C4=O)CC2)n1 (centres unmarked) [SIAIS171108, N-(2-chloro-6-methylphenyl)-2-((6-(4-(5-((2-(2,6-dioxopiperidin-3-yl)-1-oxoisoindolin-4-yl)thio)pentanoyl)piperazin-1-yl)-2-methylpyrimidin-4-yl)amino)thiazole-5-carboxamide] |  | > 10000 | < 1 | 0.54 | > 10000
Cc1nc(Nc2ncc(C(=O)Nc3c(C)cccc3Cl)s2)cc(N2CCN(CCSc3cccc4c3C(=O)N(C3CCC(=O)NC3=O)C4=O)CC2)n1 (centres unmarked) [SIAIS172056, N-(2-chloro-6-methylphenyl)-2-((6-(4-(2-((2-(2,6-dioxopiperidin-3-yl)-1,3-dioxoisoindolin-4-yl)thio)ethyl)piperazin-1-yl)-2-methylpyrimidin-4-yl)amino)thiazole-5-carboxamide] |  | > 10000 | < 1 | 0.49 | > 10000

Now from value to compound, other results behind:

IC50 [1] [µM] | IC50 (U937 cells) [nM] | DC50 (BCR-ABL) [nM] | IC50 [2] [nM] | Compound | IC50 (HEK293 cells) [nM]
2.31 |  |  |  | O=C(c1cc(Cc2n[nH]c(=O)c3ccccc23)ccc1F)N1CCN(C(=O)C2CC2)CC1 [Olaparib, reference compound] | 
1.12 |  |  |  | CNCc1ccc(-c2[nH]c3cc(F)cc4c3c2CCNC4=O)cc1 [Rucaparib, reference compound] | 
 | > 10000 | 10.3 | 1.74 | Cc1nc(Nc2ncc(C(=O)Nc3c(C)cccc3Cl)s2)cc(N2CCN(C(=O)CCSc3cccc4c3CN(C3CCC(=O)NC3=O)C4=O)CC2)n1 (centres unmarked) [SIAIS171106, N-(2-chloro-6-methylphenyl)-2-((6-(4-(3-((2-(2,6-dioxopiperidin-3-yl)-1-oxoisoindolin-4-yl)thio)propanoyl)piperazin-1-yl)-2-methylpyrimidin-4-yl)amino)thiazole-5-carboxamide] | > 10000
 | > 10000 | 5.2 | 1.4 | Cc1nc(Nc2ncc(C(=O)Nc3c(C)cccc3Cl)s2)cc(N2CCN(C(=O)CCCSc3cccc4c3CN(C3CCC(=O)NC3=O)C4=O)CC2)n1 (centres unmarked) [SIAIS171107, N-(2-chloro-6-methylphenyl)-2-((6-(4-(4-((2-(2,6-dioxopiperidin-3-yl)-1-oxoisoindolin-4-yl)thio)butanoyl)piperazin-1-yl)-2-methylpyrimidin-4-yl)amino)thiazole-5-carboxamide] | > 10000
6.45 |  |  |  | O=C1CCC(N2C(=O)c3cccc(SCC(=O)N4CCN(C(=O)c5cc(Cc6n[nH]c(=O)c7ccccc67)ccc5F)CC4)c3C2=O)C(=O)N1 (centres unmarked) [SIAIS180063, 2-(2,6-dioxopiperidin-3-yl)-4-((2-(4-(2-fluoro-5-((4-oxo-3,4-dihydrophthalazin-1-yl)methyl)benzoyl)piperazin-1-yl)-2-oxoethyl)thio)isoindoline-1,3-dione] | 
5.78 |  |  |  | O=C1CCC(N2C(=O)c3cccc(SCCC(=O)N4CCN(C(=O)c5cc(Cc6n[nH]c(=O)c7ccccc67)ccc5F)CC4)c3C2=O)C(=O)N1 (centres unmarked) [SIAIS180064, 2-(2,6-dioxopiperidin-3-yl)-4-((3-(4-(2-fluoro-5-((4-oxo-3,4-dihydrophthalazin-1-yl)methyl)benzoyl)piperazin-1-yl)-3-oxopropyl)thio)isoindoline-1,3-dione] | 
3.82 |  |  |  | O=C1CCC(N2C(=O)c3cccc(SCCCC(=O)N4CCN(C(=O)c5cc(Cc6n[nH]c(=O)c7ccccc67)ccc5F)CC4)c3C2=O)C(=O)N1 (centres unmarked) [SIAIS180065, 2-(2,6-dioxopiperidin-3-yl)-4-((4-(4-(2-fluoro-5-((4-oxo-3,4-dihydrophthalazin-1-yl)methyl)benzoyl)piperazin-1-yl)-4-oxobutyl)thio)isoindoline-1,3-dione] | 
3.57 |  |  |  | O=C1CCC(N2C(=O)c3cccc(SCCCCC(=O)N4CCN(C(=O)c5cc(Cc6n[nH]c(=O)c7ccccc67)ccc5F)CC4)c3C2=O)C(=O)N1 (centres unmarked) [SIAIS180066, 2-(2,6-dioxopiperidin-3-yl)-4-((5-(4-(2-fluoro-5-((4-oxo-3,4-dihydrophthalazin-1-yl)methyl)benzoyl)piperazin-1-yl)-5-oxopentyl)thio)isoindoline-1,3-dione] | 
2.9 |  |  |  | O=C1CCC(N2C(=O)c3cccc(SCCCCCC(=O)N4CCN(C(=O)c5cc(Cc6n[nH]c(=O)c7ccccc67)ccc5F)CC4)c3C2=O)C(=O)N1 (centres unmarked) [SIAIS180067, 2-(2,6-dioxopiperidin-3-yl)-4-((6-(4-(2-fluoro-5-((4-oxo-3,4-dihydrophthalazin-1-yl)methyl)benzoyl)piperazin-1-yl)-6-oxohexyl)thio)isoindoline-1,3-dione] | 
2.09 |  |  |  | O=C1CCC(N2C(=O)c3cccc(SCCCCCCC(=O)N4CCN(C(=O)c5cc(Cc6n[nH]c(=O)c7ccccc67)ccc5F)CC4)c3C2=O)C(=O)N1 (centres unmarked) [SIAIS180068, 2-(2,6-dioxopiperidin-3-yl)-4-((7-(4-(2-fluoro-5-((4-oxo-3,4-dihydrophthalazin-1-yl)methyl)benzoyl)piperazin-1-yl)-7-oxoheptyl)thio)isoindoline-1,3-dione] | 
